{
  "source": "paper PMC12920379",
  "about": "(European Journal of Nuclear Medicine and Molecular Imaging, 2025)",
  "key": {"PC3 tumors": {"test_system": "PC3 tumors", "assay": "In vivo combination therapy with everolimus in PC3-mice", "experimental": "(b) Everolimus monotherapy: Mice received everolimus (5 mg/kg/day) on days 0, 2, and 4 of the therapy."}, "[1]": {"assay": "Morphological assessment / tolerability of treated PC3-mice", "type": "in vivo", "description": "Selected mouse organs (kidney, pancreas and tumor) were dissected from the sacrificed animals and immediately frozen using liquid nitrogen. Frozen tissue samples were sectioned at 7 μm thickness using a cryostat maintained at −20 °C to −25 °C and mounted onto microscope glass slides, followed by staining with hematoxylin and eosin for microscopic examination using standard protocols (supplementary material).\nFrozen tissue samples (kidney, pancreas and tumor) were sectioned at 7 µm thickness using a cryostat maintained at −20°C to −25°C and mounted onto microscope glass slides. Sections were air-dried at room temperature for 15 minutes and subsequently fixed in 4% paraformaldehyde for 10 minutes. After rinsing in phosphate-buffered saline, slides were stained with hematoxylin for 5 minutes, rinsed in running tap water and differentiated in 1% acid alcohol followed by bluing in ammonia water. Sections were then counterstained with eosin for 1 minute and briefly washed in 70% ethanol to remove excess stain. Slides were dehydrated through graded ethanol (70%, 95%, 100%) and mounted with a permanent mounting medium. Stained sections were examined using a light microscope."}},
  "data": [
    {"smiles": "CO[C@H]1C[C@@H]2CC[C@@H](C)[C@@](O)(O2)C(=O)C(=O)N2CCCC[C@H]2C(=O)O[C@H]([C@H](C)C[C@@H]2CC[C@@H](OCCO)[C@H](OC)C2)CC(=O)[C@H](C)/C=C(\\C)[C@@H](O)[C@@H](OC)C(=O)[C@H](C)C[C@H](C)/C=C/C=C/C=C/1C", "note": "[everolimus]", "values": [
      {"measurement": "Time tumor volume kept under 500 mm^3", "setting": "PC3 tumors; everolimus alone 5 mg/kg/day on days 0, 2, 4", "result": 20, "unit": "days"},
      {"measurement": "Median survival", "setting": "PC3 tumors; everolimus alone 5 mg/kg/day on days 0, 2, 4, p > 0.5", "result": "~ 25 days"},
      {"measurement": "Microscopic tissue examination, kidney", "setting": "[1]; 5mg/kg (x3)", "result": "Vacuolar degeneration of some tubular epithelial cells. No other obvious lesions"},
      {"measurement": "Microscopic tissue examination, pancreas", "setting": "[1]; 5mg/kg (x3)", "result": "No obvious lesions."},
      {"measurement": "Tolerability (physical condition, weight fluctuations)", "setting": "[1]; PC3-mice, three doses of everolimus", "result": "no observable side effects"}
    ]}
  ]
}
